Assay type in all cases: cell-based, Mycobacterium smegmatis
Assay [1] concerns M. smegmatis ATCC 607. Briefly: Inhibition of M. smegmatis growth in broth cultures (cell counts). As to conditions: for Cell Numbers per ml × 10^6: no ODS.
In assay [2] the test system is M. smegmatis ATCC 607. In words: MIC of ethambutol in the presence of oligodeoxynucleotide phosphorothioates in broth cultures. As to conditions: Mycolicibacterium smegmatis, ATCC607, 336 h, read-out: MIC of ethambutol.
For assay [3], the system named is M. smegmatis mc^2155. The description is as above. As to conditions: Mycolicibacterium smegmatis, 336 h, no ODS, at least 99% inhibition of cell growth during two weeks.

On to `N[C@@H]1CONC1=O` [D-cycloserine], for which the “Cell Numbers per ml × 10^6” value was 617 × 10^6 cells per ml in assay [1] (Table IV, free D-cycloserine 1 μg/ml alone, 24 hrs); 549 × 10^6 cells per ml in assay [1] (Table IV, free D-cycloserine 1 μg/ml alone, 48 hrs); 504 × 10^6 cells per ml in assay [1] (Table IV, free D-cycloserine 1 μg/ml alone, 72 hrs); 551 × 10^6 cells per ml in assay [1] (Table IV, free D-cycloserine 5 μg/ml alone, 24 hrs); 482 × 10^6 cells per ml in assay [1] (Table IV, free D-cycloserine 5 μg/ml alone, 48 hrs); 420 × 10^6 cells per ml in assay [1] (Table IV, free D-cycloserine 5 μg/ml alone, 72 hrs). For the same molecule, the “Cell Numbers per ml × 10^6” value in assay [1] (Table IV, free D-cycloserine 30 μg/ml alone, 24 hrs) is given as 363 × 10^6 cells per ml; in assay [1] (Table IV, free D-cycloserine 30 μg/ml alone, 48 hrs), 291 × 10^6 cells per ml; in assay [1] (Table IV, free D-cycloserine 30 μg/ml alone, 72 hrs) it was 236 × 10^6 cells per ml. Moreover, the inhibition of growth entry in assay [1] (free D-cycloserine in liquid medium, 1.0 μg/ml) is given as “minimal inhibition of growth”. In addition, in assay [1] (free D-cycloserine in liquid medium, 10-30 μg/ml), the “inhibition of M. smegmatis growth” value is “significant inhibition”.

As for `CC[C@@H](CO)NCCN[C@@H](CC)CO` [Ethambutol, ethambutol], the “Cell Numbers per ml × 10^6” value was 71 × 10^6 cells per ml in assay [1] (Table I, ethambutol 0.5 ug/ml alone, 24 hrs); 240 × 10^6 cells per ml in assay [1] (Table I, ethambutol 0.5 ug/ml alone, 48 hrs); 411 × 10^6 cells per ml in assay [1] (Table I, ethambutol 0.5 ug/ml alone, 72 hrs); 39 × 10^6 cells per ml in assay [1] (Table I, ethambutol 1 ug/ml alone, 24 hrs); 109 × 10^6 cells per ml in assay [1] (Table I, ethambutol 1 ug/ml alone, 48 hrs); 172 × 10^6 cells per ml in assay [1] (Table I, ethambutol 1 ug/ml alone, 72 hrs). For the same molecule, the “Cell Numbers per ml × 10^6” value was 25 × 10^6 cells per ml in assay [1] (Table I, ethambutol 5 ug/ml alone, 24 hrs); 68 × 10^6 cells per ml in assay [1] (Table I, ethambutol 5 ug/ml alone, 48 hrs); 111 × 10^6 cells per ml in assay [1] (Table I, ethambutol 5 ug/ml alone, 72 hrs); 77 × 10^6 cells per ml in assay [1] (Table III, ethambutol 0.5 μg/ml alone, 24 hrs); 189 × 10^6 cells per ml in assay [1] (Table III, ethambutol 0.5 μg/ml alone, 48 hrs); 388 × 10^6 cells per ml in assay [1] (Table III, ethambutol 0.5 μg/ml alone, 72 hrs). For the same molecule, the MIC – broadly, the least concentration at which growth counts as inhibited – in assay [2] turned out to be 25 µg/mL; in assay [3] it was 30 µg/mL.

Values taken from patent publication US6335436B1, “Oligonucleotides active against drug-resistant bacteria” (priority 1995, dated 2002).
